In experiment [1] the target is T1, HiBit-BRG1 fusion protein (Homo sapiens, UniProt P51532).
T1 construct: expressed in transfected cells
The experiment can be described thus: HiBiT-BRG1 cell-based degradation assay (Nano-Glo HiBiT Lytic Detection, 24 h). Conditions: HeLa cell line expressing HiBit-BRG1 and LgBit; for Dmax: read-out: BRG1 HiBit Degradation Maximum (%); for DC50: read-out: BRMG1 HiBit Degradation IC50. Summed up: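 Luminescence from reconstituted NanoBiT luciferase after lytic detection served as read-out of remaining HiBit-BRG1 in stable HeLa cells, which also express LgBit. Cells were seeded at 5000 per well and incubated with compound for 24 h. DMSO and a 2 μM known degrader defined the control range.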

Experiment [2] deals with T2, HiBit-BRM fusion protein (Homo sapiens, UniProt P51531).
T2 construct: expressed in transfected cells
T2 sequence (P51531 whole entry, the tested form may be a part): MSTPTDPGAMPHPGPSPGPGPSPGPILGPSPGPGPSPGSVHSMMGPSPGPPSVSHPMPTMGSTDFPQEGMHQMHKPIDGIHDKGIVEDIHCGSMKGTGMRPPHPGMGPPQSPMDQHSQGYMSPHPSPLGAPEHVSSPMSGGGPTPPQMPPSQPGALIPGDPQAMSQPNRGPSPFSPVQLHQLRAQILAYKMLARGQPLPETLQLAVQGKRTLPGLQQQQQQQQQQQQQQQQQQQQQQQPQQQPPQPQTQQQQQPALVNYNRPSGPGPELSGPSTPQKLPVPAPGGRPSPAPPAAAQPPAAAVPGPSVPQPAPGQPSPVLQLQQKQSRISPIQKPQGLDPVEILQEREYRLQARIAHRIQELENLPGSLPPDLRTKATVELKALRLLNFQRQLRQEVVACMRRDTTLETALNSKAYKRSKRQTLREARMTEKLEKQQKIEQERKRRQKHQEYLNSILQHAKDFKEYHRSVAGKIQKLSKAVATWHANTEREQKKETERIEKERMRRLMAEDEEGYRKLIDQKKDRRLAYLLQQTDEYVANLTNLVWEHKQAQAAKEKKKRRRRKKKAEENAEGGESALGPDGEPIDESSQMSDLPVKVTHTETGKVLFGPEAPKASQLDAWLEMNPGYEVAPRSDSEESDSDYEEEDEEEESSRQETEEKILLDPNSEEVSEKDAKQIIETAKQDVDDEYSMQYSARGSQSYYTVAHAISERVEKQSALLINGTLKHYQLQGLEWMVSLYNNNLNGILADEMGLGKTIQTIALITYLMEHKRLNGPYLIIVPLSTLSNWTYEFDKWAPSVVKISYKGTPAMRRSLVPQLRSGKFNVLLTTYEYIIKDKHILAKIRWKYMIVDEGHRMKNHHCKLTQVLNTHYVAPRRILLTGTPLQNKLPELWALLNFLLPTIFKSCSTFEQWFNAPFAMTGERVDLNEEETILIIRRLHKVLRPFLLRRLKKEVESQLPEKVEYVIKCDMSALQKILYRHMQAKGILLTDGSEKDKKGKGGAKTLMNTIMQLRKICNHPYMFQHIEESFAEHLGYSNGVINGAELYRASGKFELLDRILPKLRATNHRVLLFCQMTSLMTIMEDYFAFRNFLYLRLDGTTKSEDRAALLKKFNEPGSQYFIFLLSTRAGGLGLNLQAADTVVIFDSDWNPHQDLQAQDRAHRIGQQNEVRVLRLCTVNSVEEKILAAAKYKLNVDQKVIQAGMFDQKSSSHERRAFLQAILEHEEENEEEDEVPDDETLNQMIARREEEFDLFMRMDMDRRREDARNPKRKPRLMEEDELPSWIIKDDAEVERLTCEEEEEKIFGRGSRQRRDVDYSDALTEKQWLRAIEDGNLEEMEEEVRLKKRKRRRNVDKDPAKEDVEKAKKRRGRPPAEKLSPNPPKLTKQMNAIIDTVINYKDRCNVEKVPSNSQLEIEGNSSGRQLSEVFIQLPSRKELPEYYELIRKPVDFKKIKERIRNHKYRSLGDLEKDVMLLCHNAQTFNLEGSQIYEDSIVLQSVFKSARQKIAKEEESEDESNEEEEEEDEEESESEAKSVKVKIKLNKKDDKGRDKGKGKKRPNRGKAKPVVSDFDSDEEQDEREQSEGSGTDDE
The experiment is described as follows: HiBiT-BRM cell-based degradation assay (Nano-Glo HiBiT Lytic Detection, 24 h). The conditions noted are these: HeLa cell line expressing HiBiT-BRM; for DC50: read-out: BRM HiBit Degradation IC50. Summed up:
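Luminescence from reconstituted NanoBiT luciferase in lysed HeLa HiBiT-BRM cells served as the measure of remaining BRM after 24 h treatment. Compounds were tested from 30 μM final downward in 3-fold steps. DMSO and 2 μM of a standard BRM/BRG1 degrader defined the scale limits.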
In general terms: The HiBiT peptide binds its large partner to form an active luciferase.

The structures appear in SMILES notation.

T1 sequence (P51532 whole entry, the tested form may be a part): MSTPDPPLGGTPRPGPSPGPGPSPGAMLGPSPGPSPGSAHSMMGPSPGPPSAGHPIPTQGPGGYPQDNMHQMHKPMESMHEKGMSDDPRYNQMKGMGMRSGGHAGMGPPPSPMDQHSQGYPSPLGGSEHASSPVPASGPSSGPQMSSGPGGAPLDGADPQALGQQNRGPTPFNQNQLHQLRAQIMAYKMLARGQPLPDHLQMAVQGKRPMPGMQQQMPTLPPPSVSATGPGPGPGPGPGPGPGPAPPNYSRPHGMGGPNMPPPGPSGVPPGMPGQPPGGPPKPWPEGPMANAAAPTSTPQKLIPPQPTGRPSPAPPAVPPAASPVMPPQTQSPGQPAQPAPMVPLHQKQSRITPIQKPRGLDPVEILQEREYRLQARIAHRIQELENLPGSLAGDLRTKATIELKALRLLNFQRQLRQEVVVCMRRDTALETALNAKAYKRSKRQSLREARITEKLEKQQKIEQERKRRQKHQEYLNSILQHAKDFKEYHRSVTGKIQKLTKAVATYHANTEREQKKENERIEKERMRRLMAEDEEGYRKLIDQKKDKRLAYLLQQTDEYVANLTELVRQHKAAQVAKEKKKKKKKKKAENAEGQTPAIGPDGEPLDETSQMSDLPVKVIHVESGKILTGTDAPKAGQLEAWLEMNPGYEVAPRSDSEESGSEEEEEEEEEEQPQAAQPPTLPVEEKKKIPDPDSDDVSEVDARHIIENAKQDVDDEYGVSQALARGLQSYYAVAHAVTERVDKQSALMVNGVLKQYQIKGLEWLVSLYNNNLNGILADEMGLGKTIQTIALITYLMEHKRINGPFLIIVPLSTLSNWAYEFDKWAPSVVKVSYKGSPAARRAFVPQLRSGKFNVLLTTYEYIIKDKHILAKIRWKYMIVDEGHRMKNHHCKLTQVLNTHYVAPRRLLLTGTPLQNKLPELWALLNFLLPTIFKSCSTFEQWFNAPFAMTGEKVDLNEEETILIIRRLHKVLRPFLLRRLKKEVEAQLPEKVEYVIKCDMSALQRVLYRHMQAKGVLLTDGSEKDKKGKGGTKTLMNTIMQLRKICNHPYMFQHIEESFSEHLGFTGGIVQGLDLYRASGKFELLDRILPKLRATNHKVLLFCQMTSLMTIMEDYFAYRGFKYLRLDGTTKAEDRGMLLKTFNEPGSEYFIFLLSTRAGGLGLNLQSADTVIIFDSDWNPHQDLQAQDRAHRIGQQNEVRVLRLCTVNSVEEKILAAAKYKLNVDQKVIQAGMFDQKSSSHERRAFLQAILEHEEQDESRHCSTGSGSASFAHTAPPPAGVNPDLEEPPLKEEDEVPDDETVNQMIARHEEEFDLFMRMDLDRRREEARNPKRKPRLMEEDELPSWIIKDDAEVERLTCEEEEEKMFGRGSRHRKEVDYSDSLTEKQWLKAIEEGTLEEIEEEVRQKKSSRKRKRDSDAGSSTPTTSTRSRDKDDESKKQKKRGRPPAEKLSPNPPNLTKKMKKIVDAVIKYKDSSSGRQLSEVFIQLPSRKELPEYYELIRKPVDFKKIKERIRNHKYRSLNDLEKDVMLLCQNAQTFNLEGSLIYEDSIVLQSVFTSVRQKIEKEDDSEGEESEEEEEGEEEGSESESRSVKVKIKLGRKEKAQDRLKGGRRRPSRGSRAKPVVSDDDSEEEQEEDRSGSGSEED

On to `Cc1ncsc1-c1ccc(CNC(=O)[C@@H]2C[C@@H](O)CN2C(=O)[C@@H](NC(=O)CCCCCCCCCCCCCCCC(=O)N2CC(c3c[nH]c4nnc(-c5ccccc5O)cc34)C2)C(C)(C)C)cc1` [Compound 42, (2S,4R)-4-hydroxy-1-((S)-2-(17-(3-(3-(2-hydroxyphenyl)-7H-pyrrolo[2,3-c]pyridazin-5-yl)azetidin-1-yl)-17-oxoheptadecanamido)-3,3-dimethylbutanoyl)-N-(4-(4-methylthiazol-5-yl)benzyl)pyrrolidine-2-carboxamide], for which, in experiment [1], the Dmax is < 50%. In experiment [2], the “BRM HiBit Degradation Maximum (%)” value is “C (“C” indicates maximum degradation < 50%)”.

`Cc1ncsc1-c1ccc([C@H](C)NC(=O)[C@@H]2C[C@@H](O)CN2C(=O)[C@@H](c2cc(OCCNC(=O)c3cc4cc(-c5ccccc5O)nnc4[nH]3)no2)C(C)C)cc1` (racemic) [Compound 239, N-(2-((5-((R)-1-((2S,4R)-4-hydroxy-2-(((S)-1-(4-(4-methylthiazol-5-yl)phenyl)ethyl)carbamoyl)pyrrolidin-1-yl)-3-methyl-1-oxobutan-2-yl)isoxazol-3-yl)oxy)ethyl)-3-(2-hydroxyphenyl)-7H-pyrrolo[2,3-c]pyridazine-6-carboxamide]: the Dmax in experiment [1] was < 50%. Besides, in experiment [2], the “BRM HiBit Degradation Maximum (%)” value is “A (“A” indicates maximum degradation ≥ 75%)” and the DC50 was > 0.1 µM.

For the compound `Cc1ncsc1-c1ccc([C@H](C)NC(=O)[C@@H]2C[C@@H](O)CN2C(=O)[C@@H](c2cc(N3CCC(CN4CCc5[nH]c6nnc(-c7ccccc7O)cc6c5[C@H]4C)CC3)no2)C(C)C)cc1` (racemic) [Compound 81, (2S,4R)-4-hydroxy-1-[(2R)-2-[3-(4-{[(3R)-12-(2-hydroxyphenyl)-3-methyl-4,8,10,11-tetraazatricyclo[7.4.0.0^{2,7}]trideca-1(13),2(7),9,11-tetraen-4-yl]methyl}piperidin-1-yl)-1,2-oxazol-5-yl]-3-methylbutanoyl]-N-[(1S)-1-[4-(4-methyl-1,3-thiazol-5-yl)phenyl]ethyl]pyrrolidine-2-carboxamide], in experiment [1], the Dmax was > 75% and the DC50 is > 0.1 µM. In experiment [2], the “BRM HiBit Degradation Maximum (%)” value was “A (“A” indicates maximum degradation ≥ 75%)” and the DC50 was > 0.01 µM.

For `Cc1ncsc1-c1ccc([C@H](C)NC(=O)[C@@H]2C[C@@H](O)CN2C(=O)[C@@H](c2cc(OCCNC3CC4(C3)CC(c3cc5cc(-c6ccccc6O)nnc5[nH]3)C4)no2)C(C)C)cc1` (mixture of isomers) [Compound 223, (2S,4R)-4-hydroxy-1-((R)-2-(3-(2-((6-(3-(2-hydroxyphenyl)-7H-pyrrolo[2,3-c]pyridazin-6-yl)spiro[3.3]heptan-2-yl)amino)ethoxy)isoxazol-5-yl)-3-methylbutanoyl)-N-((S)-1-(4-(4-methylthiazol-5-yl)phenyl)ethyl)pyrrolidine-2-carboxamide], in experiment [1], the Dmax was > 75% and the DC50 was > 0.1 µM. Moreover, in experiment [2], the “BRM HiBit Degradation Maximum (%)” value was “A (“A” indicates maximum degradation ≥ 75%)” and the DC50 is > 0.01 µM.

For `Cc1ncsc1-c1ccc([C@H](C)NC(=O)[C@@H]2C[C@@H](O)CN2C(=O)[C@@H](c2cc(OCCNC34CC(c5[nH]c6nnc(-c7ccccc7O)cc6c5C)(C3)C4)no2)C(C)C)cc1` (racemic) [Compound 220, (2S,4R)-4-hydroxy-1-((R)-2-(3-(2-((3-(3-(2-hydroxyphenyl)-5-methyl-7H-pyrrolo[2,3-c]pyridazin-6-yl)bicyclo[1.1.1]pentan-1-yl)amino)ethoxy)isoxazol-5-yl)-3-methylbutanoyl)-N-((S)-1-(4-(4-methylthiazol-5-yl)phenyl)ethyl)pyrrolidine-2-carboxamide], in experiment [1], the Dmax was > 75% and the DC50 was > 0.01 µM. Besides, in experiment [2], the “BRM HiBit Degradation Maximum (%)” value is recorded as “A (“A” indicates maximum degradation ≥ 75%)” and the DC50 was < 0.01 µM.

As to `Cc1ncsc1-c1ccc(CNC(=O)[C@@H]2C[C@@H](O)CN2C(=O)[C@@H](NC(=O)CCCCCCCCCCCCC(=O)N2CC(c3cc4cc(-c5ccccc5O)nnc4[nH]3)C2)C(C)(C)C)cc1` [Compound 17, (2S,4R)-4-hydroxy-1-((S)-2-(14-(3-(3-(2-hydroxyphenyl)-7H-pyrrolo[2,3-c]pyridazin-6-yl)azetidin-1-yl)-14-oxotetradecanamido)-3,3-dimethylbutanoyl)-N-(4-(4-methylthiazol-5-yl)benzyl)pyrrolidine-2-carboxamide], the Dmax in experiment [1] was < 50%. The “BRM HiBit Degradation Maximum (%)” value in experiment [2] is reported as “C (“C” indicates maximum degradation < 50%)”.

In the case of `Cc1ncsc1-c1ccc(CNC(=O)[C@@H]2C[C@@H](O)CN2C(=O)[C@@H](c2cc(OCCN3CC(c4cc5cc(-c6ccccc6O)nnc5[nH]4)C3)no2)C(C)C)cc1` (single isomer, unassigned) [Compound 209], in experiment [1], the Dmax was < 50%. Besides, in experiment [2], the “BRM HiBit Degradation Maximum (%)” value was “A (“A” indicates maximum degradation ≥ 75%)” and the DC50 was > 0.01 µM.

For the compound `Cc1ncsc1-c1ccc([C@H](C)NC(=O)[C@@H]2C[C@@H](O)CN2C(=O)[C@H](c2cc([C@H]3CC[C@@H](c4cnc(N5CCC(c6c[nH]c7nnc(-c8ccccc8O)cc67)CC5)nc4)CC3)no2)C(C)C)cc1` [Compound 309, (2S,4R)-4-hydroxy-N-[(1S)-1-[4-(4-methyl-1,3-thiazol-5-yl)phenyl]ethyl]-1-[(2S)-3-methyl-2-{3-[(1s,4s)-4-(2-{4-[3-(2-hydroxyphenyl)-7H-pyrrolo[2,3-c]pyridazin-5-yl]piperidin-1-yl}pyrimidin-5-yl)cyclohexyl]-1,2-oxazol-5-yl}butanoyl]pyrrolidine-2-carboxamide], the Dmax in experiment [1] is < 50%. Also, in experiment [2], the “BRM HiBit Degradation Maximum (%)” value is listed as “B (“B” indicates maximum degradation ≥ 50%)” and the DC50 was > 0.1 µM.

Turning to `Cc1ncsc1-c1ccc([C@H](C)NC(=O)[C@@H]2C[C@@H](O)CN2C(=O)[C@@H](c2cc(OCCCN3C[C@@H]4[C@H](C3)[C@H]4c3c(C)[nH]c4nnc(-c5ccccc5O)cc34)no2)C(C)C)cc1` (racemic) [Compound 128, (2S,4R)-4-hydroxy-1-((R)-2-(3-(3-((1R,5S,6S)-6-(3-(2-hydroxyphenyl)-6-methyl-7H-pyrrolo[2,3-c]pyridazin-5-yl)-3-azabicyclo[3.1.0]hexan-3-yl)propoxy)isoxazol-5-yl)-3-methylbutanoyl)-N-((S)-1-(4-(4-methylthiazol-5-yl)phenyl)ethyl)pyrrolidine-2-carboxamide], in experiment [1], the Dmax is > 75% and the DC50 was > 0.01 µM. For the same compound, in experiment [2], the “BRM HiBit Degradation Maximum (%)” value is recorded as “A (“A” indicates maximum degradation ≥ 75%)” and the DC50 was < 0.01 µM.

Consider `Cc1ncsc1-c1ccc([C@H](C)NC(=O)[C@@H]2C[C@@H](O)CN2C(=O)[C@@H](c2cc(OCCN3CC(c4cc5cc(-c6ccccc6O)nnc5n4C(F)F)C3)no2)C(C)C)cc1` (racemic) [Compound 148, (2S,4R)-1-[(2R)-2-[3-(2-{3-[7-(difluoromethyl)-3-(2-hydroxyphenyl)pyrrolo[2,3-c]pyridazin-6-yl]azetidin-1-yl}ethoxy)-1,2-oxazol-5-yl]-3-methylbutanoyl]-4-hydroxy-N-[(1S)-1-[4-(4-methyl-1,3-thiazol-5-yl)phenyl]ethyl]pyrrolidine-2-carboxamide], for which the Dmax in experiment [1] was < 50%. In experiment [2], the “BRM HiBit Degradation Maximum (%)” value is “C (“C” indicates maximum degradation < 50%)”.

Regarding `Cc1ncsc1-c1ccc([C@H](C)NC(=O)[C@@H]2C[C@@H](O)CN2C(=O)[C@@H](c2cc(OCCN3CCC34CC(c3cc5cc(-c6ccccc6O)nnc5[nH]3)C4)no2)C(C)C)cc1` (mixture of isomers) [Compound 161, (2S,4R)-4-hydroxy-1-((R)-2-(3-(2-(6-(3-(2-hydroxyphenyl)-7H-pyrrolo[2,3-c]pyridazin-6-yl)-1-azaspiro[3.3]heptan-1-yl)ethoxy)isoxazol-5-yl)-3-methylbutanoyl)-N-((S)-1-(4-(4-methylthiazol-5-yl)phenyl)ethyl)pyrrolidine-2-carboxamide], in experiment [1], the Dmax was > 75% and the DC50 is > 0.1 µM. Also, in experiment [2], the “BRM HiBit Degradation Maximum (%)” value was “A (“A” indicates maximum degradation ≥ 75%)” and the DC50 is > 0.01 µM.

For the compound `Cc1ncsc1-c1ccc([C@H](C)NC(=O)[C@@H]2C[C@@H](O)CN2C(=O)[C@@H](c2cc(OCCN3CC(c4[nH]c5nnc(-c6cccc(F)c6O)cc5c4C)C3)no2)C(C)C)cc1` (racemic) [Compound 127, (2S,4R)-1-((R)-2-(3-(2-(3-(3-(3-fluoro-2-hydroxyphenyl)-5-methyl-7H-pyrrolo[2,3-c]pyridazin-6-yl)azetidin-1-yl)ethoxy)isoxazol-5-yl)-3-methylbutanoyl)-4-hydroxy-N-((S)-1-(4-(4-methylthiazol-5-yl)phenyl)ethyl)pyrrolidine-2-carboxamide], in experiment [1], the Dmax is < 50%. In experiment [2], the “BRM HiBit Degradation Maximum (%)” value is given as “A (“A” indicates maximum degradation ≥ 75%)” and the DC50 was > 0.01 µM.

On to `Cc1ncsc1-c1ccc([C@H](C)NC(=O)[C@@H]2C[C@@H](O)CN2C(=O)[C@@H](NC(=O)CCCCCCCCCCC(=O)N2CC(c3cc4cc(-c5ccccc5O)nnc4[nH]3)C2)C(C)(C)C)cc1` [Compound 13, (2S,4R)-4-hydroxy-1-((S)-2-(12-(3-(3-(2-hydroxyphenyl)-7H-pyrrolo[2,3-c]pyridazin-6-yl)azetidin-1-yl)-12-oxododecanamido)-3,3-dimethylbutanoyl)-N-((S)-1-(4-(4-methylthiazol-5-yl)phenyl)ethyl)pyrrolidine-2-carboxamide], for which, in experiment [1], the Dmax is < 50%. Further, in experiment [2], the “BRM HiBit Degradation Maximum (%)” value is listed as “A (“A” indicates maximum degradation ≥ 75%)” and the DC50 was > 0.1 µM.
